We go through 21 compounds from ChEMBL document CHEMBL1157152, “Kinetic parameters and recognition of thymidine analogues with varying functional groups by thymidine phosphorylase” (Bioorg Med Chem, 2008).

In assay [1] the target is Thymidine phosphorylase (Escherichia coli K-12) (UniProt P07650). The experiment in a line: Activity of 10 U/mL Escherichia coli thymidine phosphorylase assessed as drug phosphorylation after 24 hrs.
For assay [2] the target is unchanged. Kind of assay: Activity of Escherichia coli thymidine phosphorylase assessed as drug phosphorylation after 2 hrs. On the set-up: concentration or dose not given beside the values.
The target is the same in assay [3]. Kind of assay: Activity of Escherichia coli thymidine phosphorylase assessed as drug phosphorylation after 1 hr. More on the design: concentration or dose not given beside the values.
The target is the same in assay [4]. The experiment in a line: Activity of 10 U/mL Escherichia coli thymidine phosphorylase assessed as drug phosphorylation after 1 week.
Assay [5] has the same target. Kind of assay: Activity of Escherichia coli thymidine phosphorylase assessed as drug phosphorylation after 24 hrs.
Assay [6] has the same target. Kind of assay: Activity of 1 U/mL Escherichia coli thymidine phosphorylase assessed as drug phosphorylation after 1 hr.

Chain of Thymidine phosphorylase (Escherichia coli K-12) (P07650 whole entry, looked up): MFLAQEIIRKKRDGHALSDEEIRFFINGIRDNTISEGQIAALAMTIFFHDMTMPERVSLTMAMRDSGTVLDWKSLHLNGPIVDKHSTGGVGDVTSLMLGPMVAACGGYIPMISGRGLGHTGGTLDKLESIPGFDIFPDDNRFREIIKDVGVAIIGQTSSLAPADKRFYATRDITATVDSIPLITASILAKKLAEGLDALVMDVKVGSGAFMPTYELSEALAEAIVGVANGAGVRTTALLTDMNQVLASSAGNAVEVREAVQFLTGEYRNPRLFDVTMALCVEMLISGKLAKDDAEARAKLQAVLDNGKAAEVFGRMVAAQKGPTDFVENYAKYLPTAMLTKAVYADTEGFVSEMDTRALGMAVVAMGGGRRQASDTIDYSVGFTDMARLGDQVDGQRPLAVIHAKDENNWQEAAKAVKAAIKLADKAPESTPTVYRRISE

`Cc1cn(COC(CO)CO)c(=O)[nH]c1=O`: the Activity in assay [1] came out at 0%. `Cc1cn([C@H]2C[C@H](S)[C@@H](CO)O2)c(=O)[nH]c1=O`: the Activity in assay [2] and in assay [3] was 0% throughout. Consider `Cc1cn([C@H]2C[C@H](O)C[C@@H](CO)O2)c(=O)[nH]c1=O`, for which the Activity in assay [1] came out at 0%.

For the compound `Cc1cn([C@H]2CC(O)[C@@H](CO)O2)c(=O)[nH]c1=O` (single isomer, unassigned), the Activity in assay [2] and in assay [3] was 0% each time. Turning to `Cc1cn([C@H]2C[C@H](O)[C@@H](CO)S2)c(=O)[nH]c1=O`, the Activity in assay [1] was determined as 3.8%. As to `Nc1ccn([C@H]2C[C@H](O)[C@@H](CO)O2)c(=O)n1`, the Activity in assay [1] and in assay [4] was 0% in each case. Regarding `Cc1cn([C@@H]2C[C@H](O)[C@@H](CO)O2)c(=O)[nH]c1=O`, the Activity in assay [1] and in assay [4] was 0% each time. For `Cc1cn([C@H]2C[C@H](O)[C@@H](CN)O2)c(=O)[nH]c1=O`, the results for the Activity in assay [2] and in assay [3] were 36% and 11%, respectively. For the compound `O=c1ccn([C@@H]2O[C@H](CO)[C@@H](O)[C@H]2O)c(=O)[nH]1`, the Activity turned out to be 81% in assay [2] and 56% in assay [3]. `O=c1ccn([C@H]2C[C@H](O)[C@@H](CO)O2)c(=O)[nH]1`: the Activity in assay [2] stood at 88%; in assay [5] it was 83%. Consider `Cc1cn([C@H]2C[C@H](O)[C@@H](CI)O2)c(=O)[nH]c1=O`, for which the Activity in assay [2] and in assay [3] was 0% in each case. Consider `Cc1cn([C@@H]2C[C@H](O)[C@@H](CO)S2)c(=O)[nH]c1=O`, for which the Activity in assay [1] was determined as 0%. Regarding `Cc1cnc(=O)n([C@H]2C[C@H](O)[C@@H](CO)O2)c1`, the Activity in assay [1] and in assay [4] was 0% each time. For the compound `Cc1nn([C@H]2C[C@H](O)[C@@H](CO)O2)c(=O)[nH]c1=O`, the Activity in assay [1] was 5.4%; in assay [4], 7.9%. In the case of `Cc1cn([C@H]2CC[C@@H](CO)O2)c(=O)[nH]c1=O`, the figures for the Activity in assay [2] and in assay [3] were 6.1% and 3.2%, respectively. Taken in the same sequence, the figures for `Cc1cn([C@H]2C[C@H](O)[C@@H](CN=[N+]=[N-])O2)c(=O)[nH]c1=O` were 0% and 0%. Take `Cc1cn([C@H]2C[C@H](O)[C@@H](CS)O2)c(=O)[nH]c1=O`: the Activity was found to be 90% in assay [2] and 39% in assay [3]. For `Cc1cn([C@H]2C[C@H](N)[C@@H](CO)O2)c(=O)[nH]c1=O` the same measures were 1.5% and 0.76%. With `Cc1cn([C@H]2C[C@H](O)[C@@H](CO)O2)c(=O)[nH]c1=O`, the Activity was 86% in assay [2], 82% in assay [5], 86% in assay [6] and 86% in assay [3]. With `Cc1cn([C@H]2C[C@H](O)[C@@H](C)O2)c(=O)[nH]c1=O`, the Activity in assay [2] is 91%; in assay [3], 68%. On to `Cc1cn([C@H]2C[C@H](O)[C@@H](CCl)O2)c(=O)[nH]c1=O`, for which the results for the Activity in assay [2] and in assay [3] were 70% and 24%, respectively.
